PubChem BioAssay (NCI)
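Protocol summary: plate cells (96-well), add compound at 5 concentrations, incubate 48 h, interpolate endpoints linearly. GI50 is the concentration that inhibits growth by half. TGI: concentration producing complete growth inhibition.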

Experiments:
Test in all cases: growth of human tumour cells (NCI), 48 h
[1] = system: SNB-75 CNS
[2] = system: U251 CNS
[3] = system: SK-OV-3 ovarian
[4] = system: HCT-116 colon
[5] = system: SW-620 colon
[6] = system: SK-MEL-5 melanoma
[7] = system: MALME-3M melanoma
[8] = system: HCC-2998 colon

SMILES | GI50 [1] [µM] | TGI [1] [µM] | GI50 [2] [µM] | TGI [2] [µM] | GI50 [3] [µM] | TGI [3] [µM] | GI50 [4] [µM] | TGI [4] [µM] | GI50 [5] [µM] | TGI [5] [µM] | GI50 [6] [µM] | TGI [6] [µM] | GI50 [7] [µM] | TGI [7] [µM] | GI50 [8] [µM] | TGI [8] [µM]
COc1ccc(-c2cc3cccc(OC)c3c(=O)o2)cc1OC | 53.1 | > 100 | 12.4 | > 100 | 46.2 | > 100 | 29.6 | > 100 | 40 | > 100 | 4.14 | 40.8 | > 100 | > 100 |  | 
Nc1ccccc1C#C/C=C\C#Cc1ccc(F)cc1F |  |  | 13.7 | 26.5 | 27.4 | 66.7 | 15.4 | 31.4 | 36.9 | > 100 | 9.69 | 25.3 | 6.11 | 22.5 | 2.57 | 12.6
COc1cc(-c2c3c(cn2S(=O)(=O)c2ccccc2)-c2nc(N)sc2CC3)cc(OC)c1OC | 0.222 | 1.1 | 0.591 | 10.5 | 1.17 | 9.77 | 0.515 | 21.3 | 0.39 | > 100 | 0.579 | 18.8 | 0.449 | 38 | 4.81 | > 100
C=CC1CC12C(=O)C1OC2(C)C2C(=O)c3ccccc3C(=O)C12 (configuration not stated) | > 37.4 | > 76.1 | 38.7 | > 100 | > 93.3 | > 100 | > 100 | > 100 | 45.3 | > 100 | 18.7 | 54.7 | 21.3 | 59.1 | > 100 | > 100
CC(C)C1CN1CC(O)Cn1ccnc1[N+](=O)[O-] (configuration not stated) |  | > 100 |  | > 100 |  | > 100 |  | > 100 |  | > 100 |  | > 100 |  | > 100 |  | > 100
O=C1c2ccn(CCCCN3CCOCC3)c2C(=O)c2c1c(O)c1ccccc1c2O | > 100 | > 100 | 10.9 | 31.8 | 16.2 | 55.4 | 7.03 | 19.9 |  |  |  |  |  |  |  | 
COc1ccc2c(c1)Oc1nc(N)c(C#N)c(N)c1C2Sc1ccc(SC)cc1 (configuration not stated) | 1.46 | 2.8 | 1.73 | 3.19 | 1.77 | 3.16 | 1.76 | 3.24 |  |  | 1.79 | 3.18 | 1.78 | 3.35 | 1.78 | 3.36
CC1OCC2OC(C)OC(C3C4=C(CC(C)(C)CC4=O)OC4=C3C(=O)CC(C)(C)C4)C2O1 (configuration not stated) |  | > 100 |  |  |  | > 100 |  | > 100 |  | > 100 |  | > 100 |  | > 100 |  | > 100
c1ccc2c(c1)O[As](O[As]1Oc3ccccc3O1)O2 | 1.87 | 12 | 1.35 | 4.43 | 11.7 | 26 | 3.17 | 14.1 | 3.01 | 14.8 | 1.55 | 3.69 | 2.32 | 5.21 | 4.96 | 18.4
CCCOC(=O)N[C@H]1CCc2c(Br)c(OC)c(OC)c(OC)c2-c2ccc(SC)c(=O)cc21 | 0.0262 | 25.5 | 0.0363 | 15.1 | 0.0726 | 59.5 | 0.0248 | 5.07 | 0.0245 | > 100 | 0.0162 | 0.0501 | 0.0348 | 27.2 | 0.0317 | 4.26
Cc1ccc(S(=O)(=O)N(C)C)cc1[N+](=O)[O-] |  |  | > 100 | > 100 | > 100 | > 100 | > 100 | > 100 | > 100 | > 100 | > 100 | > 100 | > 100 | > 100 | > 100 | > 100
CCCC[C@@H]1NC(=O)[C@H](CCCCN)NC(=O)[C@H](CCCNC(=N)N)NC(=O)[C@H](CC(C)C)NC(=O)[C@@H](NC(=O)[C@H](Cc2cccc(Cl)c2)NC(=O)[C@@H]2CCCN2C(=O)[C@@H](NC(C)=O)C(C)C)CCSSC[C@@H](C(=O)N[C@@H](CCCCN)C(=O)N2CCC[C@H]2C(=O)N2CCC[C@H]2C(=O)N[C@@H](CCC(=O)O)C(N)=O)NC(=O)[C@H](Cc2ccccc2)NC(=O)[C@H](CO)NC(=O)[C@H](C)NC(=O)[C@@H]2CCCN2C1=O | > 50 | > 50 | > 50 | > 50 | > 50 | > 50 | > 50 | > 50 | > 50 | > 50 | > 50 | > 50 | > 50 | > 50 | > 50 | > 50
COc1cc(OC)c(-c2cc(=O)c3c(OC)c(OC)c(OC)c(OC)c3o2)cc1OC |  | > 73.9 |  | > 100 |  | > 100 |  | > 100 |  | > 100 |  | > 100 |  | > 100 |  | > 100
Cn1ncc2c(Nc3ccc(Br)cc3)nc(Nc3ccc(Br)cc3)nc21 | 2.23 | 12.5 | 2.89 | 10 | 10.9 | 23.5 | 3.22 | 11.9 | 2.93 | 8.97 | 2.2 | 7.52 | 3.32 | 14.7 | 1.94 | 3.98
COC(=O)C(=O)C(C(=O)C(=O)Nc1ccccc1C(=O)OC)c1nc2ccc(C(=O)c3ccccc3)cc2[nH]c1=O (configuration not stated) |  | > 100 |  | > 100 |  | > 100 |  | > 100 |  | > 100 |  | > 100 |  | > 100 |  | 
O=C1OCC(c2ccc(O)c(O)c2)=C1c1cc(O)c(O)c(O)c1 | 54 | > 100 | 17.9 | 32.7 |  |  | 18.1 | 35.5 | 21.1 | 42.8 | 38.2 | > 100 | > 100 | > 100 |  | 
COc1cc2c(cc1OC)C13CCN4CC5=CCOC(CC(=O)O)C(C5CC41)C3N2 (configuration not stated) |  |  |  | > 100 |  | > 100 |  | > 100 |  | > 100 |  | > 100 |  | > 100 |  | 
CN(C(=O)C1CCCCC1)c1ccccc1I(=O)=O | 34.6 | > 100 | 31.3 | > 100 | 32.4 | > 100 |  |  | 20 | 44.6 | 20.3 | 73.8 | 14.6 | 30.9 | 70.3 | > 100
